From the supplement of paper PMC10307832

Legend:
Test in all cases: relative viability (nuclei count vs DMSO), 5 days (fraction); higher = more cells survive
[1] = compound: CN(c1ncccc1CNc1nc(Nc2ccc3c(c2)CC(=O)N3)ncc1C(F)(F)F)S(C)(=O)=O + O=C(c1cc(Cc2n[nH]c(=O)c3ccccc23)ccc1F)N1CCN(C(=O)C2CC2)CC1 [Olaparib] (partner 8 µM)
Outline: (§1)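 Relative viability is defined as nuclei in treated wells over nuclei in vehicle wells. Duplicate plates were run and medians reported. Lung cancer cell lines in 1536-well plates were dosed by pin tool one day after seeding, with one drug or with a fixed anchor-drug dose plus five library-drug doses (not always all listed) in √10 steps, and nuclei were counted after 5 days.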

[2] = compound: CN(c1ncccc1CNc1nc(Nc2ccc3c(c2)CC(=O)N3)ncc1C(F)(F)F)S(C)(=O)=O + Nc1nc2[nH]cc(CCc3ccc(C(=O)N[C@@H](CCC(=O)O)C(=O)O)cc3)c2c(=O)[nH]1 [Pemetrexed] (partner 0.2 µM)
Outline: as §1

[3] = compound: CN(c1ncccc1CNc1nc(Nc2ccc3c(c2)CC(=O)N3)ncc1C(F)(F)F)S(C)(=O)=O + COc1cc2c(Oc3ccc(NC(=O)C4(C(=O)Nc5ccc(F)cc5)CC4)cc3F)ccnc2cc1OCCCN1CCOCC1 [Foretinib] (partner 0.25 µM)
Outline: as §1

[4] = compound: CN(c1ncccc1CNc1nc(Nc2ccc3c(c2)CC(=O)N3)ncc1C(F)(F)F)S(C)(=O)=O + Cc1nc(NC(=O)N2CCC[C@H]2C(N)=O)sc1-c1ccnc(C(C)(C)C(F)(F)F)c1 [Alpelisib] (partner 2 µM)
Outline: as §1

Row | Cell Line | relative viability ([1]; first compound 0.01 µM) | relative viability ([1]; first compound 0.03162 µM) | relative viability ([1]; first compound 0.1 µM) | relative viability ([1]; first compound 0.3162 µM) | relative viability ([1]; first compound 1 µM) | relative viability ([2]; first compound 0.01 µM) | relative viability ([2]; first compound 0.03162 µM) | relative viability ([2]; first compound 0.1 µM) | relative viability ([2]; first compound 0.3162 µM) | relative viability ([2]; first compound 1 µM) | relative viability ([3]; first compound 0.01 µM) | relative viability ([3]; first compound 0.03162 µM) | relative viability ([3]; first compound 0.1 µM) | relative viability ([3]; first compound 0.3162 µM) | relative viability ([3]; first compound 1 µM) | relative viability ([4]; first compound 0.01 µM) | relative viability ([4]; first compound 0.03162 µM) | relative viability ([4]; first compound 0.1 µM) | relative viability ([4]; first compound 0.3162 µM) | relative viability ([4]; first compound 1 µM)
1 | NCI-H838 | 0.736 | 0.809 | 0.725 | 0.55 | 0.43 | 0.247 | 0.258 | 0.247 | 0.219 | 0.238 | 1.01 | 1.06 | 1.07 | 0.882 | 0.718 | 0.961 | 1.17 | 1.01 | 0.862 | 0.705
2 | NCI-H1437 | 0.63 | 0.633 | 0.59 | 0.583 | 0.466 | 0.332 | 0.335 | 0.33 | 0.347 | 0.398 | 1.31 | 1.2 | 1.21 | 1.11 | 0.988 | 0.973 | 1.13 | 1.05 | 0.941 | 0.788
3 | NCI-H2170 | 0.684 | 0.652 | 0.672 | 0.604 | 0.521 | 0.305 | 0.268 | 0.269 | 0.266 | 0.274 | 1.02 | 1.02 | 1.01 | 1.02 | 0.949 | 0.762 | 0.874 | 0.862 | – | 0.786
4 | LCLC-103H | 0.724 | 0.742 | 0.78 | 0.693 | 0.669 | 0.476 | 0.474 | 0.488 | 0.541 | 0.463 | 0.677 | 0.751 | 0.765 | 0.766 | 0.759 | 1.04 | 0.982 | 0.868 | 0.872 | 0.897
5 | NCI-H441 | 0.633 | 0.592 | 0.466 | 0.486 | 0.408 | 0.222 | 0.262 | 0.244 | 0.292 | 0.262 | 0.974 | 1.14 | 0.999 | 1.17 | 0.761 | 0.624 | 0.65 | 0.557 | 0.793 | 0.614
6 | SK-LU-1 | 0.411 | 0.433 | 0.38 | 0.408 | 0.445 | 1.04 | 0.903 | 0.954 | 1 | 0.88 | 0.823 | 0.845 | 0.712 | 0.815 | 0.61 | 0.929 | 1.25 | 0.988 | 0.988 | 0.928
7 | BEN | 0.961 | 1.27 | 1.26 | 1.18 | 1.1 | 0.771 | 0.753 | 0.777 | 0.809 | 0.671 | 0.815 | 0.608 | 0.618 | 0.587 | 0.845 | 1.02 | 1.2 | 1.02 | 1.05 | 1.03
8 | LC-2-ad | 0.732 | 0.703 | 0.703 | 0.664 | 0.596 | 0.283 | 0.3 | 0.274 | 0.285 | 0.274 | 0.851 | 0.865 | 0.967 | 0.939 | 0.933 | 0.789 | 0.714 | 0.883 | 0.902 | 0.877
9 | COR-L23 | 0.382 | 0.344 | 0.33 | 0.305 | 0.278 | 0.202 | 0.18 | 0.211 | 0.205 | 0.203 | 1.07 | 1.15 | 0.937 | 0.921 | 0.851 | 0.742 | 0.846 | 0.713 | 0.647 | 0.702
10 | RERF-LC-KJ | 0.983 | 0.945 | 0.97 | 0.849 | 0.927 | 0.428 | 0.355 | 0.496 | 0.515 | 0.575 | 0.867 | 1.03 | 0.861 | 0.843 | 0.939 | 0.838 | 0.955 | 0.813 | 0.765 | 0.825
11 | NCI-H1915 | 0.272 | 0.241 | 0.262 | 0.264 | 0.285 | 0.528 | 0.569 | 0.455 | 0.517 | 0.538 | 1.13 | 1.06 | 1.04 | 1.12 | 1.04 | 1.07 | 1.1 | 1.03 | 1.05 | 1.02
12 | NCI-H596 | 0.634 | 0.655 | 0.664 | 0.674 | 0.723 | 0.425 | 0.466 | 0.503 | 0.469 | 0.605 | 0.848 | 0.859 | 0.863 | 0.806 | 0.861 | 0.58 | 0.48 | 0.482 | 0.48 | 0.392
13 | NCI-H2009 | 0.651 | 0.707 | 0.684 | 0.681 | 0.679 | 1.03 | 1 | 0.923 | 1.01 | 0.948 | 1.17 | 1.22 | 1.27 | 1.27 | 0.965 | 1.12 | 1.21 | 1.17 | 1.17 | 1.1
14 | NCI-H2126 | 0.879 | 1.01 | 0.865 | 0.867 | 0.795 | 0.7 | 0.718 | 0.615 | 0.697 | 0.632 | 1.34 | 1.13 | 1.06 | 1.19 | 1.08 | 0.717 | 0.739 | 0.742 | 0.743 | 0.641
15 | LXF-289 | 1.1 | 1.21 | 1.04 | 1.11 | 1.02 | 1.03 | 0.829 | 0.864 | 0.804 | 0.871 | 1.04 | 1.01 | 1.02 | 1.04 | 0.968 | 1.05 | 1.07 | 1.07 | 0.988 | 0.947
16 | PC-14 | 0.38 | 0.282 | 0.271 | 0.261 | 0.243 | 0.162 | 0.135 | 0.134 | 0.128 | 0.134 | 1.01 | 1.04 | 1.01 | 1.07 | 1 | 1.02 | 1.07 | 0.982 | 0.951 | 0.869
